# Results: patent publication US20240415819A1, “MACROCYCLIC COMPOUNDS AS PROTEASOME SUBUNIT BETA TYPE-5 INHIBITORS” (Lead Discovery Center GmbH, priority 2021, published 2024)
# Where two headings read alike, the source gives them in different places.
# Legend:
# [1] = target: T1, β5 subunit of the human constitutive proteasome (CPS) (Homo sapiens, UniProt P28074); assay: β5 inhibition assay, human constitutive proteasome (Suc-LLVY-AMC); format: biochemical; settings: IC50 class, Suc-LLVY-AMC substrate
# T1 construct: purchased Boston Biochem E-360
# Protocol: The enzymatic activity of the β5 subunit of the human constitutive proteasome (CPS) is analyzed. In another assay, which differs from the assay of the human constitutive proteasome only in using the human immunoproteasome (IPS) the enzymatic activity of the β5 subunit of the human immunoproteasome (IPS) is analyzed. […] Inhibition is indicated as IC50 [nM] (“-”=not measured).
# [2] = target: T2, β5 subunit of the human immunoproteasome (IPS) (Homo sapiens, UniProt P28062); assay: β5 inhibition assay, human immunoproteasome (Suc-LLVY-AMC); format: biochemical; settings: IC50 class, Suc-LLVY-AMC substrate
# T2 construct: purchased Boston Biochem E-370
# How it was run: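 β5 activity is read as liberated AMC fluorescence (355/460 nm) after 4 h dark reaction at RT with 22.6 μM Suc-LLVY-AMC, stopped by 1 μM bortezomib. Beforehand, 1 nM human IPS and compound sat 10 min at RT in HEPES pH 7.5 buffer containing NaCl, 0.02% SDS and DTT.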
# [3] = system: HT-29 cells; assay: CellTiter-Glo luminescent cell viability assay with HT-29 cells (72h incubation); format: cell-based, human; settings: read-out: CTG HT29
# How it was run: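 Viability read as CellTiter-Glo luminescence after 72 h compound exposure, with 10 μM staurosporine and DMSO as control wells. Seeding 400 cells per well, compound added 24 h post-plating; IC50 from curve fitting.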
# [4] = system: A549 (human lung carcinoma cell line); assay: Glo assay of A549 cells (Table 3; ProteasomeGlo plating scheme); format: cell-based
# How it was run: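 After acoustic compound transfer, plates incubate 105 min (37° C., 5% CO2). Proteasome-Glo reagent containing Suc-LLVY-Glo substrate is added, plates are shaken, then luminescence is measured after 10-15 min to derive IC50 [nM]. Staurosporine and DMSO serve as controls.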
# [5] = Homo sapiens, HT-29, HT29 cells
# [6] = Homo sapiens, A549 cells, read-out: PGLo A549
SMILES,IC50 [1],IC50 [2],"IC50 [3, 5]","IC50 [4, 6]",IC50 ([3]; HT29 cells),"IC50 ([4]; A549 cells, read-out: PGLo A549)","IC50 ([4]; Homo sapiens, A549, read-out: PGLo A549 [nM])"
"CCOC(C(=O)N[C@H]1CC(=O)N2CCCC(CCOc3ccc(C)c(c3)CNC(=O)[C@H](CCc3ccccc3)NC1=O)C2)c1ccc(N)cc1 (stereo partly drawn) [Compound 345, 2-(4-aminophenyl)-2-ethoxy-N-((9S,12S)-5^4-methyl-8,11,14-trioxo-9-phenethyl-4-oxa-7,10-diaza-1(3,1)-piperidina-5(1,3)-benzenacyclotetradecaphane-12-yl)acetamide]",< 0.1 µM,< 0.1 µM,< 0.1 µM,100 to 500 nM,–,–,–
"Cc1ccc2cc1CNC(=O)[C@H](CCc1ccccc1)NC(=O)[C@@H](NC(=O)CC1=NN(c3ccccc3)C(=O)C1)CC(=O)N1CCCC(CCO2)C1 (stereo partly drawn) [Compound 334, N-((9S,12S)-5^4-methyl-8,11,14-trioxo-9-phenethyl-4-oxa-7,10-diaza-1(3,1)-piperidina-5(1,3)-benzenacyclotetradecaphane-12-yl)-2-(5-oxo-1-phenyl-4,5-dihydro-1H-pyrazol-3-yl)acetamide]",< 0.1 µM,< 0.1 µM,< 0.1 µM,100 to 500 nM,–,–,–
"CC(=O)N[C@H]1CC(=O)N2CCCC(CCOc3ccc(C)c(c3)CNC(=O)C(c3cnn(CCC(=O)O)c3)NC1=O)C2 (stereo partly drawn) [Compound 567, 3-(4-((12S)-12-acetamido-5^4-methyl-8,11,14-trioxo-4-oxa-7,10-diaza-1(3,1)-piperidina-5(1,3)-benzenacyclotetradecaphane-9-yl)-1H-pyrazol-1-yl)propanoic acid]",< 0.1 µM,< 0.1 µM,0.1 to 0.5 µM,< 100 nM,–,–,–
"Cc1ccc2cc1CNC(=O)C(CCc1cnc3nccnc3c1)NC(=O)[C@@H](NC(=O)OCc1ccccc1)CC(=O)N1CCCC(CCO2)C1 (stereo partly drawn) [Compound 505, benzyl ((12S)-5^4-methyl-8,11,14-trioxo-9-(2-(pyrido[2,3-b]pyrazin-7-yl)ethyl)-4-oxa-7,10-diaza-1(3,1)-piperidina-5(1,3)-benzenacyclotetradecaphane-12-yl)carbamate]",< 0.1 µM,< 0.1 µM,< 0.1 µM,< 100 nM,–,–,–
"CC(=O)N[C@H]1CC(=O)N2CCCC(CCOc3ccc(C)c(c3)CNC(=O)C(CCc3cccnc3)NC1=O)C2 (stereo partly drawn) [Compound 549, N-((12S)-5^4-methyl-8,11,14-trioxo-9-(2-(pyridin-3-yl)ethyl)-4-oxa-7,10-diaza-1(3,1)-piperidina-5(1,3)-benzenacyclotetradecaphane-12-yl)acetamide]",< 0.1 µM,< 0.1 µM,< 0.1 µM,100 to 500 nM,–,–,–
"Cc1ccc2cc1CNC(=O)[C@@H](CCc1ccccc1)NC(=O)[C@H](NC(=O)C(C)(C)CS)CC(=O)N1CCCC(CCO2)C1 (stereo partly drawn) [Compound 348, 3-mercapto-2,2-dimethyl-N-((9S,12S)-5^4-methyl-8,11,14-trioxo-9-phenethyl-4-oxa-7,10-diaza-1(3,1)-piperidina-5(1,3)-benzenacyclotetradecaphane-12-yl)propanamide]",< 0.1 µM,< 0.1 µM,< 0.1 µM,< 100 nM,–,–,–
"Cc1ccc2cc1CNC(=O)[C@H](CCc1ccccc1)NC(=O)[C@@H](NC(=O)Cc1nnc(N)[nH]1)CC(=O)N1CCCC(CCO2)C1 (stereo partly drawn) [Compound 340, 2-(5-amino-1H-1,2,4-triazol-3-yl)-N-((9S,12S)-5^4-methyl-8,11,14-trioxo-9-phenethyl-4-oxa-7,10-diaza-1(3,1)-piperidina-5(1,3)-benzenacyclotetradecaphane-12-yl)acetamide]",< 0.1 µM,< 0.1 µM,0.1 to 0.5 µM,< 100 nM,–,–,–
"Cc1ccc2cc1CNC(=O)C(CCc1ccccc1)NC(=O)C(NC(=O)CCc1ccccc1)CC(=O)N1CCCC(CCO2)C1 [Compound 30, N-((9S,12S)-5^4-methyl-8,11,14-trioxo-9-phenethyl-4-oxa-7,10-diaza-1(3,1)-piperidina-5(1,3)-benzenacyclotetradecaphane-12-yl)-3-phenylpropanamide]",< 0.1 µM,< 0.1 µM,–,–,< 0.1 µM,< 100 nM,–
"CC(=O)N[C@H]1CCC(=O)N2CC3CC(Oc4ccc(C)c(c4)CNC(=O)[C@H](CCc4ccccc4)NC1=O)C3C2 (stereo partly drawn) [Compound 299, N-(3^4-methyl-6,9,13-trioxo-7-phenethyl-2-oxa-13,5,8-triaza-1(6,3)-bicyclo[3.2.0]heptana-3(1,3)-benzenacyclotridecaphane-10-yl)acetamide]",> 5 µM,0.5 to 1 µM,0.1 to 0.5 µM,> 5000 nM,–,–,–
"Cc1ccc2cc1CNC(=O)[C@H](CCc1ccccc1)NC(=O)[C@@H](NC(=O)Cc1ccccc1)CC(=O)N1CCCC(CCO2)C1 (stereo partly drawn) [Compound 29, N-((9S,12S)-5^4-methyl-8,11,14-trioxo-9-phenethyl-4-oxa-7,10-diaza-1(3,1)-piperidina-5(1,3)-benzenacyclotetradecaphane-12-yl)-2-phenylacetamide]",< 0.1 µM,< 0.1 µM,< 0.1 µM,< 100 nM,–,–,–
"Cc1ccc2cc1CNC(=O)C(CCc1ccncc1)NC(=O)[C@@H](NC(=O)Cc1nnc(N)s1)CC(=O)N1CCCC(CCO2)C1 (stereo partly drawn) [Compound 342, 2-(5-amino-1,3,4-thiadiazol-2-yl)-N-((12S)-5^4-methyl-8,11,14-trioxo-9-(2-(pyridin-4-yl)ethyl)-4-oxa-7,10-diaza-1(3,1)-piperidina-5(1,3)-benzenacyclotetradecaphane-12-yl)acetamide]",< 0.1 µM,< 0.1 µM,< 0.1 µM,< 100 nM,–,–,–
"Cc1ccc2cc1CNC(=O)[C@H](CCc1ccccc1)NC(=O)[C@@H](NC1COC1)CC(=O)N1CCCC(CCO2)C1 (stereo partly drawn) [Compound 35, (9S,12S)-5^4-methyl-12-(oxetan-3-ylamino)-9-phenethyl-4-oxa-7,10-diaza-1(3,1)-piperidina-5(1,3)-benzenacyclotetradecaphane-8,11,14-trione]",< 0.1 µM,< 0.1 µM,0.1 to 0.5 µM,100 to 500 nM,–,–,–
"CC(=O)N[C@H]1CC(=O)N2CCCC(CCOc3ccc(C)c(c3)CNC(=O)C(Cn3c(=O)oc4ccccc43)NC1=O)C2 (stereo partly drawn) [Compound 555, N-((12S)-5^4-methyl-8,11,14-trioxo-9-((2-oxobenzo[d]oxazol-3(2H)-yl)methyl)-4-oxa-7,10-diaza-1(3,1)-piperidina-5(1,3)-benzenacyclotetradecaphane-12-yl)acetamide]",< 0.1 µM,< 0.1 µM,< 0.1 µM,< 100 nM,–,–,–
"CC(=O)c1ccc(CC(=O)N[C@H]2CC(=O)N3CCCC(CCOc4ccc(C)c(c4)CNC(=O)[C@H](CCc4ccccc4)NC2=O)C3)cc1 (stereo partly drawn) [Compound 341, 2-(4-acetylphenyl)-N-((9S,12S)-54-methyl-8,11,14-trioxo-9-phenethyl-4-oxa-7,10-diaza-1(3,1)-piperidina-5(1,3)-benzenacyclotetradecaphane-12-yl)acetamide]",< 0.1 µM,< 0.1 µM,< 0.1 µM,< 100 nM,–,–,–
"Cc1ccc2cc1CNC(=O)[C@H](CCc1ccccc1)NC(=O)[C@@H](Nc1ncccn1)CC(=O)N1CCCC(CCO2)C1 (stereo partly drawn) [Compound 34, (9S,12S)-5^4-methyl-9-phenethyl-12-(pyrimidin-2-ylamino)-4-oxa-7,10-diaza-1(3,1)]",< 0.1 µM,< 0.1 µM,< 0.1 µM,–,–,–,< 100 nM
"Cc1ccc2cc1CNC(=O)C(c1cnn(C)c1)NC(=O)[C@@H](NC(=O)CN1CCCC1)CC(=O)N1CCCC(CCO2)C1 (stereo partly drawn) [Compound 358, N-((12S)-5^4-methyl-9-(1-methyl-1H-pyrazol-4-yl)-8,11,14-trioxo-4-oxa-7,10-diaza-1(3,1)-piperidina-5(1,3)-benzenacyclotetradecaphane-12-yl)-2-(pyrrolidin-1-yl)acetamide]",0.1 to 0.5 µM,< 0.1 µM,0.1 to 0.5 µM,< 100 nM,–,–,–
"Cc1ccc2cc1CNC(=O)[C@H](CCc1ccccc1)NC(=O)[C@@H](NC(=O)Cc1ccccc1F)CC(=O)N1CCCC(CCO2)C1 (stereo partly drawn) [Compound 333, 2-(2-fluorophenyl)-N-((9S,12S)-5^4-methyl-8,11,14-trioxo-9-phenethyl-4-oxa-7,10-diaza-1(3,1)-piperidina-5(1,3)-benzenacyclotetradecaphane-12-yl)acetamide]",< 0.1 µM,< 0.1 µM,< 0.1 µM,< 100 nM,–,–,–
"Cc1ccc2cc1CNC(=O)C(CCc1cnccn1)NC(=O)[C@@H](NC(=O)Cc1ccc(N)cc1F)CC(=O)N1CCCC(CCO2)C1 (stereo partly drawn) [Compound 372, 2-(4-amino-2-fluorophenyl)-N-((9S,12S)-5^4-methyl-8,11,14-trioxo-9-(2-(pyrazin-2-yl)ethyl)-4-oxa-7,10-diaza-1(3,1)-piperidina-5(1,3)-benzenacyclotetradecaphane-12-yl) acetamide]",< 0.1 µM,< 0.1 µM,< 0.1 µM,< 100 nM,–,–,–
